The structures appear in SMILES notation.

T1 sequence (Q9NRG4 whole entry): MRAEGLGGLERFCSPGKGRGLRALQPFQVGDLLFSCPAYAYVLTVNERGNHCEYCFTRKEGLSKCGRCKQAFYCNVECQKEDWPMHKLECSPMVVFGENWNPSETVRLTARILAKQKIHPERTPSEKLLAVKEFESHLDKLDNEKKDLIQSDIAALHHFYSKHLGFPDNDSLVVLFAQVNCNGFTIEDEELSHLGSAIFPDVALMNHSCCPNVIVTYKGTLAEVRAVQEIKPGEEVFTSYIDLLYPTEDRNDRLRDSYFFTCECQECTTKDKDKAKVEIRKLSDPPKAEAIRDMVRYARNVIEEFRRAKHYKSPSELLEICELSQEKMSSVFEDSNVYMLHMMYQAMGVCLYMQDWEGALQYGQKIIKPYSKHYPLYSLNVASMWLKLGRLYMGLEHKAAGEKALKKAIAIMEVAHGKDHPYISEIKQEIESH

One assay concerns the target T1, SMYD2 (Homo sapiens, UniProt Q9NRG4).
T1 construct: Full length SMYD2 (NP 064582.2) was cloned; His6 (N, cleaved yes); FLAG (N); made in house; host or cells: Sf9 insect cells
Nature of the assay: SMYD2 Biochemical Assay (3H-SAM, biotinylated peptide substrate, Flashplate). The conditions noted are these: IC50 values are an average of n = 1 to n = 50; read-out: SMYD2 Biochem IC50 (μM)*. An outline of the steps: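 Full-length His/FLAG-tagged SMYD2 expressed in Sf9 cells with tag cleaved, 1.5 nM, pre-incubated 30 min at room temperature with compound, then 10 nM 3H-SAM and 60 nM biotinylated peptide added. Buffer 20 mM Bicine pH 7.6, 1 mM TCEP, 0.005% BSG, 0.002% Tween20, 2% DMSO. Stopped with 600 uM cold SAM; 3H-peptide captured on streptavidin Flashplate; IC50 by curve fit.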
A word on the IC50: it is the midpoint of a concentration-inhibition curve. Regarding `C[C@H]1CN(Cc2ccccc2Cl)C[C@H]1NC(=O)c1cc(C2CC2)on1` (racemic) [compound 275, (±)-cis-N-{1-[(2-chloro-phenyl)methyl]-4-methyl-pyrrolidin-3-yl}-5-cyclopropyl-1,2-oxazole-3-carboxamide], the 50% inhibitory concentration (IC50) was found to be 3.02 µM.

Regarding `CCc1nc(C)c(CN2C[C@@H](C)[C@H](NC(=O)c3cc(C4CC4)on3)C2)[nH]1` (racemic) [compound 131, (±)-trans-5-cyclopropyl-N-[1-[(2-ethyl-4-methyl-1H-imidazol-5-yl)methyl]-4-methyl-pyrrolidin-3-yl]-1,2-oxazole-3-carboxamide], the IC50 was greater than 50 µM.

As to `C[C@@H]1CN(CC(=O)N2CCCC2)C[C@H]1NC(=O)c1cc(C2CC2)on1` (racemic) [compound 293, (±)-trans-5-cyclopropyl-N-{4-methyl-1-[2-oxo-2-(pyrrolidin-1-yl)ethyl]pyrrolidin-3-yl}-1,2-oxazole-3-carboxamide], the IC50 was greater than 50 µM.

Turning to `COc1cccc(CN2C[C@H](C)[C@H](NC(=O)c3cc(C4CC4)on3)C2)c1` (racemic) [compound 223, (±)-cis-5-cyclopropyl-N-[1-[(3-methoxy-phenyl)methyl]-4-methylpyrrolidin-3-yl]-1,2-oxazole-3-carboxamide], the IC50 turned out to be 4.96 µM.

`C[C@H]1CN(CC(F)F)C[C@H]1NC(=O)c1cc(C2CC2)on1` (racemic) [compound 216, (±)-cis-5-cyclopropyl-N-[1-(2,2-difluoroethyl)-4-methylpyrrolidin-3-yl]-1,2-oxazole-3-carboxamide]: the IC50 is greater than 50 µM.

As to `COc1ncc(CN2C[C@H](C)[C@H](NC(=O)c3cc(C4CC4)on3)C2)cc1Br` (racemic) [compound 284, (±)-cis-N-{1-[(5-bromo-6-methoxypyridin-3-yl)methyl]-4-methyl-pyrrolidin-3-yl}-5-cyclopropyl-1,2-oxazole-3-carboxamide], the half-maximal inhibitory concentration (IC50) was 40.5 µM.

For the compound `CC(C)N1C[C@H](NC(=O)c2cc(C3CC3)on2)[C@@H](C2CC2)C1` (racemic) [compound 138, (±)-trans-5-cyclopropyl-N-[4-cyclopropyl-1-(propan-2-yl)pyrrolidin-3-yl]-1,2-oxazole-3-carboxamide], the IC50 is 48.1 µM.

As to `CC(C)N1C[C@H](NC(=O)c2cc(C3CC3)on2)[C@@](C)(O)C1` [compound 246, 5-cyclopropyl-N-[(3S,4S)-4-hydroxy-4-methyl-1-(propan-2-yl)pyrrolidin-3-yl]-1,2-oxazole-3-carboxamide], the concentration for half-maximal inhibition (IC50) is greater than 50 µM.

Regarding `CC(C)[C@@H]1CN(C)C[C@@H]1NC(=O)c1cc(C2CC2)on1` (racemic) [compound 218, (±)-cis-5-cyclopropyl-N-[1-methyl-4-(propan-2-yl)pyrrolidin-3-yl]-1,2-oxazole-3-carboxamide], the IC50 turned out to be 37.4 µM.

Take `C[C@H]1CN(c2ccncc2)C[C@H]1NC(=O)c1cc(C2CC2)on1` (racemic) [compound 319, (±)-cis-5-cyclopropyl-N-[4-methyl-1-(pyridin-4-yl)pyrrolidin-3-yl]-1,2-oxazole-3-carboxamide]: the IC50 was greater than 50 µM.

On to `C[C@@H]1CN(Cc2ccc(N(C)C)cc2)C[C@H]1NC(=O)c1cc(C2CC2)on1` (racemic) [compound 148, (±)-trans-5-cyclopropyl-N-[1-{[4-(dimethyl-amino)phenyl]methyl}-4-methylpyrrolidin-3-yl]-1,2-oxazole-3-carboxamide], for which the IC50 is 37 µM.

For the compound `C[C@@H]1CN(CC(=O)N2CCNCC2)C[C@H]1NC(=O)c1cc(C2CC2)on1` (racemic) [compound 311, (±)-trans-5-cyclopropyl-N-{4-methyl-1-[2-oxo-2-(piperazin-1-yl)ethyl]pyrrolidin-3-yl}-1,2-oxazole-3-carboxamide], the IC50 is greater than 50 µM.

As for `C[C@H]1CN(CCF)C[C@H]1NC(=O)c1cc(C2CC2)on1` (racemic) [compound 254, (±)-cis-5-cyclopropyl-N-[1-(2-fluoroethyl)-4-methylpyrrolidin-3-yl]-1,2-oxazole-3-carboxamide], the IC50 turned out to be 5.72 µM.

Regarding `CCOC(=O)C(C)CN1C[C@@H](C)[C@H](NC(=O)c2cc(C3CC3)on2)C1` (relative stereo) [compound 128, trans-ethyl 3-[3-(5-cyclopropyl-1,2-oxazole-3-amido)-4-methylpyrrolidin-1-yl]-2-methylpropanoate], the IC50 was greater than 50 µM.

Take `C[C@H]1CN(C(CO)c2ccccc2)C[C@H]1NC(=O)c1cc(C2CC2)on1` (relative stereo) [compound 330, cis-5-cyclopropyl-N-[1-(2-hydroxy-1-phenylethyl)-4-methyl-pyrrolidin-3-yl]-1,2-oxazole-3-carboxamide]: the IC50 worked out at 9.44 µM.

As to `C[C@@H]1CN(c2ccccc2)C[C@H]1NC(=O)c1cc(C2CC2)on1` (racemic) [compound 296, (±)-trans-5-cyclopropyl-N-(4-methyl-1-phenyl-pyrrolidin-3-yl)-1,2-oxazole-3-carboxamide], the IC50 is greater than 50 µM.

With `C[C@H]1CN(c2ccccc2Cl)C[C@H]1NC(=O)c1cc(C2CC2)on1` (racemic) [compound 301, (±)-cis-N-[1-(2-chloro-phenyl)-4-methyl-pyrrolidin-3-yl]-5-cyclo-propyl-1,2-oxazole-3-carboxamide], the IC50 was greater than 50 µM.

In the case of `CC(C)N1C[C@H](C)[C@H](NC(=O)c2cc(C3(C)CC3)on2)C1` (racemic) [compound 217, (±)-cis-N-[4-methyl-1-(propan-2-yl)pyrrolidin-3-yl]-5-(1-methyl-cyclopropyl)-1,2-oxazole-3-carboxamide], the IC50 stood at 22.3 µM.

As to `C[C@H]1CN(c2ccccn2)C[C@H]1NC(=O)c1cc(C2CC2)on1` (racemic) [compound 318, (±)-cis-5-cyclopropyl-N-[4-methyl-1-(pyridin-2-yl)pyrrolidin-3-yl]-1,2-oxazole-3-carboxamide], the IC50 was greater than 50 µM.

Consider `C[C@H]1CN(Cc2cccc3[nH]ncc23)C[C@H]1NC(=O)c1cc(C2CC2)on1` (racemic) [compound 265, (±)-cis-5-cyclopropyl-N-[1-(1H-indazol-4-ylmethyl)-4-methylpyrrolidin-3-yl]-1,2-oxazole-3-carboxamide], for which the IC50 came out at 4.89 µM.

For `C[C@@H]1CN(Cc2c[nH]cn2)C[C@H]1NC(=O)c1cc(C2CC2)on1` (racemic) [compound 180, (±)-trans-5-cyclopropyl-N-[1-(1H-imidazol-4-ylmethyl)-4-methylpyrrolidin-3-yl]-1,2-oxazole-3-carboxamide], the IC50 was 42.5 µM.

`CC(C)[C@H]1CN(C)C[C@@H]1NC(=O)c1cc(C2CC2)on1` (racemic) [compound 177, (±)-trans-5-cyclopropyl-N-[1-methyl-4-(propan-2-yl)pyrrolidin-3-yl]-1,2-oxazole-3-carboxamide]: the IC50 was greater than 50 µM.

Consider `CC(C)N1C[C@H](NC(=O)c2cc(C3CC3)on2)[C@H](C(C)(C)C)C1` (racemic) [compound 258, (±)-cis-N-[4-tert-butyl-1-(propan-2-yl)pyrrolidin-3-yl]-5-cyclopropyl-1,2-oxazole-3-carboxamide], for which the IC50 is greater than 50 µM.

Take `CNC(=O)CN1C[C@@H](C)[C@H](NC(=O)c2cc(C3CC3)on2)C1` (racemic) [compound 286, (±)-trans-5-cyclopropyl-N-{4-methyl-1-[(methyl-carbamoyl)methyl]pyrrolidin-3-yl}-1,2-oxazole-3-carboxamide]: the IC50 is greater than 50 µM.

Take `C[C@@H]1CN(Cc2ccccn2)C[C@H]1NC(=O)c1cc(C2CC2)on1` (racemic) [compound 125, (±)-trans-5-cyclopropyl-N-[4-methyl-1-(pyridin-2-ylmethyl)pyrrolidin-3-yl]-1,2-oxazole-3-carboxamide]: the IC50 is greater than 50 µM.

On to `C[C@H]1CN(CC2CCNC2)C[C@H]1NC(=O)c1cc(C2CC2)on1` (mixture of isomers) [compound 163, (±)-cis-5-cyclopropyl-N-[4-methyl-1-(pyrrolidin-3-ylmethyl)pyrrolidin-3-yl]-1,2-oxazole-3-carboxamide], for which the IC50 is greater than 50 µM.

In the case of `C[C@H]1CN(CC2CCN(C(=O)OC(C)(C)C)CC2)C[C@H]1NC(=O)c1cc(C2CC2)on1` (racemic) [compound 205, (±)-cis-tert-butyl 4-{[3-(5-cyclopropyl-1,2-oxazole-3-amido)-4-methylpyrrolidin-1-yl]methyl}piperidine-1-carboxylate], the half-maximal inhibitory concentration (IC50) worked out at 7.69 µM.

The assay is the same for the next values; noted with them: Table 1; average of n = 1 to n = 50; read-out: SMYD2 Biochem IC50.
In the case of `O=C(NC1CNCC1O)c1cc(C2CC2)on1` (stereo not shown) [compound 37, 5-cyclopropyl-N-(4-hydroxypyrrolidin-3-yl)isoxazole-3-carboxamide], the IC50 is 36.1 µM.

As for `C[C@H]1CN(C2CC2)C[C@@H]1NC(=O)c1cc(C2CCCC2)on1` (racemic) [compound 53, (±)-trans-5-cyclopentyl-N-(1-cyclopropyl-4-methylpyrrolidin-3-yl)isoxazole-3-carboxamide], the IC50 is greater than 50 µM.

Still in this assay, the particulars now being: Table 2; average of n = 1 to n = 50; read-out: SMYD2 Biochem IC50.
For `C[C@H]1CN(Cc2cccnc2)C[C@H]1NC(=O)c1cc(C2CC2)on1` (racemic) [compound 107, (±)-cis-5-cyclopropyl-N-(4-methyl-1-(pyridin-3-ylmethyl)pyrrolidin-3-yl)isoxazole-3-carboxamide], the IC50 is 17.7 µM.

For the compound `C[C@H]1CN(S(=O)(=O)C2CCNCC2)C[C@@H]1NC(=O)c1cc(C2CC2)on1` (racemic) [compound 91, (±)-trans-5-cyclopropyl-N-(4-methyl-1-(piperidin-4-ylsulfonyl)pyrrolidin-3-yl)isoxazole-3-carboxamide], the IC50 was greater than 50 µM.

The record behind these values is patent publication US20170253601A1, “Substituted Pyrrolidine Compounds” (EPIZYME, INC., priority 2014, published 2017).
